From US6489315B1, “Cyclic compounds, their production and use” (Takeda Chemical Industries, Ltd., priority 1995, dated 2002)

Row | melting point | Compound
1 | 257 to 258 °C | CC1CCn2c(c(-c3ccccc3)c3cccnc3c2=O)C(=O)N(Cc2cc(C(F)(F)F)cc(C(F)(F)F)c2)C1 (racemic) [Example 15, (+/−)-7-[3,5-Bis(trifluoromethyl)benzyl]-6,7,8,9,10,11-hexahydro-9-methyl-6,13-dioxo-5-phenyl-13H-[1,4]diazocino[2,1-g][1,7]naphthyridine]
2 | 280 to 281 °C | Cc1ccc(-c2c3n(c(=O)c4ncccc24)CCC(C)CN(Cc2cc(C(F)(F)F)cc(C(F)(F)F)c2)C3=O)cc1 (racemic) [Example 16, (+/−)-7-[3,5-Bis(trifluoromethyl)benzyl]-6,7,8,9,10,11-hexahydro-9-methyl-5-(4-methylphenyl)-6,13-dioxo-13H-[1,4]diazocino[2,1-g][1,7]naphthyridine]
3 | 282 to 283 °C | Cc1ccc(-c2c3n(c(=O)c4ncccc24)CC(O)CN(Cc2cc(C(F)(F)F)cc(C(F)(F)F)c2)C3=O)cc1 (racemic) [Example 25, (+/−)-7-[3,5-Bis(trifluoromethyl)benzyl]-6,7,8,9,10,12-hexahydro-9-hydroxy-5-(4-methylphenyl)-6,12-dioxo[1,4]diazepino [2,1-g][1,7]naphthyridine]
4 | 270 to 271 °C | Cc1ccc(-c2c3n(c(=O)c4ncccc24)CCN(Cc2cc(C(F)(F)F)cc(C(F)(F)F)c2)C3=O)cc1 [Example 1, 7-[3,5-Bis(trifluoromethyl)benzyl]-6,7,8,9-tetrahydro-5-(4-methylphenyl)-6,11-dioxo-11H-pyrazino[2,1-g][1,7]naphthyridine]
5 | 194 to 195 °C | Cc1ccc(-c2c3n(c(=O)c4ncccc24)CCCN(Cc2cc(C(F)(F)F)cc(C(F)(F)F)c2)C3=O)cc1 [Example 2, 7-[3,5-Bis(trifluoromethyl)benzyl]-6,7,8,9,10,12-hexahydro-5-(4-methylphenyl)-6,12-dioxo[1,4]diazepino[2,1-g][1,7]naphthyridine]
6 | 200 to 201 °C | O=C1c2c(-c3ccccc3)ccnc2OCCN1Cc1cc(C(F)(F)F)cc(C(F)(F)F)c1 [Example 11, 4-[3,5-Bis(trifluoromethyl)benzyl]-2,3,4,5-tetrahydro-5-oxo-6-phenylpyrido[3,2-f][1,4]oxazepine]
7 | 179 to 180 °C | Cc1ccc(-c2c3n(c(=O)c4ncccc24)C[C@H](C)CN(Cc2cc(C(F)(F)F)cc(C(F)(F)F)c2)C3=O)cc1 [Example 12, (9R)-7-[3,5-Bis(trifluoromethyl)benzyl]-6,7,8,9,10,12-hexahydro-9-methyl-5-(4-methylphenyl)-6,12-dioxo[1,4]diazepino[2,1-g][1,7]naphthyridine]
8 | 150 to 152 °C | C[C@H]1CN(Cc2cc(C(F)(F)F)cc(C(F)(F)F)c2)C(=O)c2c(-c3ccccc3)c3cccnc3c(=O)n2C1 [Example 13, (9S)-7-[3,5-Bis(trifluoromethyl)benzyl]-6,7,8,9,10,12-hexahydro-9-methyl-6,12-dioxo-5-phenyl[1,4]diazepino[2,1-g][1,7]naphthyridine]
9 | 179 to 180 °C | Cc1ccc(-c2c3n(c(=O)c4ncccc24)C[C@@H](C)CN(Cc2cc(C(F)(F)F)cc(C(F)(F)F)c2)C3=O)cc1 [Example 14, (9S)-7-(3,5-Bis(trifluoromethyl)benzyl]-6,7,8,9,10,12-hexahydro-9-methyl-5-(4-methylphenyl)-6,12-dioxo[1,4]diazepino[2,1-g][1,7]naphthyridine]
10 | 245 to 247 °C | C[C@@H]1CCn2c(c(-c3ccccc3)c3cccnc3c2=O)C(=O)N(Cc2cc(C(F)(F)F)cc(C(F)(F)F)c2)C1 [Example 17, (9R)-7-[3,5-Bis(trifluoromethyl)benzyl]-6,7,8,9,10,11-hexahydro-9-methyl-6,13-dioxo-5-phenyl-13H-[1,4]diazocino[2,1-g][1,7]naphthyridine]
11 | 226 to 228 °C | Cc1ccc(-c2c3n(c(=O)c4ncccc24)CC[C@@H](C)CN(Cc2cc(C(F)(F)F)cc(C(F)(F)F)c2)C3=O)cc1 [Example 18, (9R)-7-[3,5-Bis(trifluoromethyl)benzyl]-6,7,8,9,10,11-hexahydro-9-methyl-5-(4-methylphenyl)-6,13-dioxo-13H-[1,4]diazocino[2,1-g][1,7]naphthyridine]
12 | 242 to 244 °C | C[C@H]1CCn2c(c(-c3ccccc3)c3cccnc3c2=O)C(=O)N(Cc2cc(C(F)(F)F)cc(C(F)(F)F)c2)C1 [Example 19, (9S)-7-[3,5-Bis(trifluoromethyl)benzyl]-6,7,8,9,10,11-hexahydro-9-methyl-6,13-dioxo-5-phenyl-13H-[1,4]diazocino[2,1-g][1,7]naphthyridine]
13 | 227 to 228 °C | Cc1ccc(-c2c3n(c(=O)c4ncccc24)CC[C@H](C)CN(Cc2cc(C(F)(F)F)cc(C(F)(F)F)c2)C3=O)cc1 [Example 20, (9S)-7-[3,5-Bis(trifluoromethyl)benzyl]-6,7,8,9,10,11-hexahydro-9-methyl-5-(4-methylphenyl)-6,13-dioxo-13H-[1,4]diazocino[2,1-g][1,7]naphthyridine]
14 | 242 to 243 °C | O=C1c2c(-c3ccccc3)ccnc2NCCN1Cc1cc(C(F)(F)F)cc(C(F)(F)F)c1 [Example 21, 4-[3,5-Bis(trifluoromethyl)benzyl]-2,3,4,5-tetrahydro-5-oxo-6-phenyl-1H-pyrido[2,3-e][1,4]diazepine]
15 | 188 to 189 °C | O=C1c2c(-c3ccccc3)ccnc2OCCCN1Cc1cc(C(F)(F)F)cc(C(F)(F)F)c1 [Example 22, 5-[3,5-Bis(trifluoromethyl)benzyl]-2,3,4,5-tetrahydro-6-oxo-7-phenyl-6H-pyrido(2,3-b)[1,5]oxazocine]
16 | 147 to 149 °C | Cc1cnc2c(c1-c1ccccc1)C(=O)N(Cc1cc(C(F)(F)F)cc(C(F)(F)F)c1)C[C@@H](C)CO2 [Example 32, (R)-5-[3,5-Bis(trifluoromethyl)benzyl]-2,3,4,5-tetrahydro-3,8-dimethyl-6-oxo-7-phenyl-6H-pyrido[2,3-b][1,5]oxazocine]
17 | 151 to 153 °C | Cc1cc(-c2ccccc2)c2c(n1)OCCN(Cc1cc(C(F)(F)F)cc(C(F)(F)F)c1)C2=O [Example 33, 4-[3,5-Bis(trifluoromethyl)benzyl)-2,3,4,5-tetrahydro-8-methyl-5-oxo-6-phenylpyrido[3,2-f][1,4]oxazepine]
18 | 164 to 165 °C | Cc1cc(-c2ccccc2)c2c(n1)OCCCN(Cc1cc(C(F)(F)F)cc(C(F)(F)F)c1)C2=O [Example 34, 5-[3,5-Bis(trifluoromethyl)benzyl]-2,3,4,5-tetrahydro-9-methyl-6-oxo-7-phenyl-6H-pyrido[2,3-b][1,5]oxazocine]
19 | 181 to 183 °C | Cc1cc(-c2ccccc2)c2c([n+]1[O-])OCCN(Cc1cc(C(F)(F)F)cc(C(F)(F)F)c1)C2=O [Example 35]

Row | Compound | melting point
20 | CC(=O)OCc1cc(-c2ccccc2)c2c(n1)OCCN(Cc1cc(C(F)(F)F)cc(C(F)(F)F)c1)C2=O [Example 37, 8-Acetoxymethyl-4-[3,5-bis(trifluoromethyl)benzyl]-2,3,4,5-tetrahydro-5-oxo-6-phenylpyrido(3,2-f][1,4]oxazepine] | 122 to 124 °C
21 | CC(=O)OCc1cc(-c2ccccc2)c2c(n1)OCCCN(Cc1cc(C(F)(F)F)cc(C(F)(F)F)c1)C2=O [Example 38, 9-Acetoxymethyl-5-[3,5-bis(trifluoromethyl)benzyl]-2.3,4,5-tetrahydro-6-oxo-7-phenyl-6H-pyrido[2,3-b][1,5]oxazocine] | 156 to 157 °C
